From patent publication US20240197712A1, “TGF-BETA INHIBITION FOR IMMUNODEFICIENCY VIRUS REACTIVATION FROM LATENCY, ENHANCEMENT OF IMMUNODEFICIENCY VIRUS-SPECIFIC RESPONSES AND IMMUNODEFICIENCY VIRUS CURE” (Northwestern University, priority 2022, published 2024)

Columns and labels:
moDCs = experiment: moDC phenotyping by flow cytometry; type: cell-based, human; conditions: moDCs generated in the presence of TGF-β1
Method: (§1) CD14^+ cells were isolated from PBMC using the Miltenyi CD14^+ beads. Monocyte-derived DCs (moDCs) were obtained from CD14+ cells cultured in GM-CSF and IL-4 as previously described (55). At day 4 of moDCs differentiation, TGF-β1 (10 ng/ml R&D systems) was added to the moDCs to generate the TGF-β-DCs (or both TGF-β1 and galunisertib). At day 6, 2 days after TGF-1 addition, moDCs were phenotyped (in 3 donors; See Table 2 for antibodies list) and co-cultured with eFluor670 (eBioscience)-labelled U1 at 3:1 U1:DC ratio (5 donors). After 18 hrs of co-culture, cells were stained for p24 intracellularly as described above.

U1 cells [1] = experiment: DC-driven HIV reactivation from U1 cells (moDC co-culture); type: cell-based; conditions: moDCs treated with TGF-β1 10 ng/ml for last 2 days, with or without galunisertib; 18 hrs co-culture
Method: as §1

primary CD4+ T cells = experiment: Primary CD4+ T cell model of HIV-1 latency, p24 ICS; type: cell-based, human; conditions: primary CD4+ T cells infected with HIV ADA; PMA 100 ng/ml; TGF-β1 10 ng/ml or galunisertib 1 μM
Method: Next, the impact of TGF-β1 on a primary model of HIV-1 latency was tested using freshly isolated CD4+ T cells. The experiment was based on the model by Berkhout and colleagues (50) with some modifications (FIG. 1F). Specifically, CD4+ T cells were isolated from HIV-1 uninfected, de-identified donor PBMC and activated them with PHA and IL-2 for 3 days before infection via spinoculation with HIV ADA. After extensive wash of the viral inoculum, cells were cultured 48 hrs in presence of T20 (enfuvirtide) to avoid viral spread beyond the cells with initial integrations. The overall initial infection achieved was very low despite the spinoculation step (˜0.1% of p24-gag+ cells, FIGS. 3A-3B).
Blood from de-identified donors was obtained from the New York Blood Bank and used as source of CD4 T cells for the primary model of HIV latency in vitro. Total CD4+ T cells were isolated with the CD4 T cells isolation kit (Miltenyi) and activated with 5 μg/ml of PHA and 50 U/ml of IL-2 for 3 days. After washing out the PHA, cells were infected with 200TCID50 of HIV-ADA (NIH HIV Reagent Program) in 12 or 24 wells/plates and spinoculated at 1200 g for 2 hrs at 25° C. After additional 3 hrs of incubation at 37° C., viral inoculum was washed and cells plated in presence of T20 (Enfurtivide acetate salt, 1 μM NIH AIDS reagent program). […]

ACH-2 cells = experiment: PMA-induced HIV reactivation in ACH-2 cells, intracellular p24 staining; type: cell-based
Method: ACH2 cells and U1 cells were obtained through the NIH HIV Reagent Program, Division of AIDS, NIAID, NIH (contributed by Dr. Thomas Folks). […] In the HIV latency reactivation conditions, PMA (Phorbol 12-myristate 13-acetate, SigmaAldrich) was added at 100 ng/ml together with galunisertib or TGF-β1. After 18 hrs, cells were stained intracellularly for p24 using the KC57 antibody (NIH HIV Reagent Program) as previously described (74).

U1 cells [2] = experiment: PMA-induced HIV reactivation in U1 cells, intracellular p24 staining; type: cell-based; conditions: U1 cells
Method: ACH2 cells and U1 cells were obtained through the NIH HIV Reagent Program, Division of AIDS, NIAID, NIH (contributed by Dr. Thomas Folks). Cells ([…]) were cultured in triplicates in RPMI with 10% FBS and Pen/Strep in presence of TGF-β1 (10 ng/ml R&D systems), TGF-β1 and galunisertib (1 μM MedChemExpress), galunisertib alone or mock treated. In the HIV latency reactivation conditions, PMA (Phorbol 12-myristate 13-acetate, SigmaAldrich) was added at 100 ng/ml together with galunisertib or TGF-β1. After 18 hrs, cells were stained intracellularly for p24 using the KC57 antibody (NIH HIV Reagent Program) as previously described (74).

TGF-β1: exogenous TGF-β1 cytokine (R&D systems) added to cultures at 10 ng/ml
DEC-205 expression on moDCs (moDCs): significantly lower
frequency of p24-gag+ U1 cells in cocultures with TGF-β1-treated DCs versus untreated DCs (U1 cells [1]): significantly less
PMA-induced frequency of p24-gag+ cells (primary CD4+ T cells): significantly inhibited
decrease of the frequency of p24-gag+ cells in PMA-stimulated cultures (ACH-2 cells; ACH-2 cells, PMA 100 ng/ml, TGF-β1 10 ng/ml): ~20%
baseline p24-gag levels in absence of PMA (ACH-2 cells; ACH-2 cells, TGF-β1 10 ng/ml): smaller but consistent decrease
effect on p24+ cells in X-Vivo 15 medium without FBS (ACH-2 cells; control experiments, U1 and ACH-2, no FBS): more pronounced
frequency of p24-gag+ cells in unstimulated cultures (U1 cells [2]; no PMA, TGF-β1 10 ng/ml or galunisertib 1 μM alone): below the baseline level
reduction of the PMA driven increase in the frequency of p24-gag+ cells (U1 cells [2]; PMA 100 ng/ml, TGF-β1 10 ng/ml, 18 hrs): ~20%
